# Measurements published in the NIST ThermoML archive (doi:10.1016/j.jct.2016.10.031).
# ± gives the expanded uncertainty stated by the source.
# Assay: Molar enthalpy of transition or fusion
# Details: Crystal; Adiabatic calorimetry
compound,measurement,value
CC(C)(C)c1ccc(Oc2ccc([N+](=O)[O-])cc2)cc1 [1-(tert-butyl)-4-(4-nitrophenoxy)benzene],Molar enthalpy of transition or fusion,20.09 ± 0.17 kJ/mol
